Data on 13 molecules can be found in patent publication US9988400B2 (Genentech, Inc., priority 2013, dated 2018).

Molecules are shown by their SMILES.

As a reminder, the EC50 is the concentration that produces a half-maximal response.

This assay concerns the target T1, HEK cells stably transfected with tetracycline inducible hNR1 and hNR2A (Homo sapiens, UniProt Q05586+Q12879).
T1 construct: expressed in transfected cells; host or cells: HEK cells, stably transfected, tetracycline/doxycycline inducible
Description: Assay 1: Cell-Based Assay, cytosolic calcium response to positive allosteric modulators (with 30 μM glycine and 300 nM L-glutamate, EC30). The settings on record: for Max %: responses scaled relative to 100 μM L-glutamate maximal response (100%) and 0 μM L-glutamate (0%); for EC50: cytosolic calcium response, with 30 μM glycine and 300 nM L-glutamate (EC30), — = no plateau was reached. In outline: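 Cells induced 24 h with 7.5 μg mL^−1 doxycycline plus 500 μM (+)-ketamine, loaded 60 min at 37 °C with calcium dye in Mg-free HBSS (1.8 mM Ca, probenecid, 10 μM (+)-ketamine, pH 7.15). Peak RFU over 5 min after compound addition, scaled to 100 μM L-glutamate (100%) and 0 μM (0%); four-parameter Hill fit for EC50, max % if no plateau.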

T1 sequence (Q12879 23-1464, other chains not shown): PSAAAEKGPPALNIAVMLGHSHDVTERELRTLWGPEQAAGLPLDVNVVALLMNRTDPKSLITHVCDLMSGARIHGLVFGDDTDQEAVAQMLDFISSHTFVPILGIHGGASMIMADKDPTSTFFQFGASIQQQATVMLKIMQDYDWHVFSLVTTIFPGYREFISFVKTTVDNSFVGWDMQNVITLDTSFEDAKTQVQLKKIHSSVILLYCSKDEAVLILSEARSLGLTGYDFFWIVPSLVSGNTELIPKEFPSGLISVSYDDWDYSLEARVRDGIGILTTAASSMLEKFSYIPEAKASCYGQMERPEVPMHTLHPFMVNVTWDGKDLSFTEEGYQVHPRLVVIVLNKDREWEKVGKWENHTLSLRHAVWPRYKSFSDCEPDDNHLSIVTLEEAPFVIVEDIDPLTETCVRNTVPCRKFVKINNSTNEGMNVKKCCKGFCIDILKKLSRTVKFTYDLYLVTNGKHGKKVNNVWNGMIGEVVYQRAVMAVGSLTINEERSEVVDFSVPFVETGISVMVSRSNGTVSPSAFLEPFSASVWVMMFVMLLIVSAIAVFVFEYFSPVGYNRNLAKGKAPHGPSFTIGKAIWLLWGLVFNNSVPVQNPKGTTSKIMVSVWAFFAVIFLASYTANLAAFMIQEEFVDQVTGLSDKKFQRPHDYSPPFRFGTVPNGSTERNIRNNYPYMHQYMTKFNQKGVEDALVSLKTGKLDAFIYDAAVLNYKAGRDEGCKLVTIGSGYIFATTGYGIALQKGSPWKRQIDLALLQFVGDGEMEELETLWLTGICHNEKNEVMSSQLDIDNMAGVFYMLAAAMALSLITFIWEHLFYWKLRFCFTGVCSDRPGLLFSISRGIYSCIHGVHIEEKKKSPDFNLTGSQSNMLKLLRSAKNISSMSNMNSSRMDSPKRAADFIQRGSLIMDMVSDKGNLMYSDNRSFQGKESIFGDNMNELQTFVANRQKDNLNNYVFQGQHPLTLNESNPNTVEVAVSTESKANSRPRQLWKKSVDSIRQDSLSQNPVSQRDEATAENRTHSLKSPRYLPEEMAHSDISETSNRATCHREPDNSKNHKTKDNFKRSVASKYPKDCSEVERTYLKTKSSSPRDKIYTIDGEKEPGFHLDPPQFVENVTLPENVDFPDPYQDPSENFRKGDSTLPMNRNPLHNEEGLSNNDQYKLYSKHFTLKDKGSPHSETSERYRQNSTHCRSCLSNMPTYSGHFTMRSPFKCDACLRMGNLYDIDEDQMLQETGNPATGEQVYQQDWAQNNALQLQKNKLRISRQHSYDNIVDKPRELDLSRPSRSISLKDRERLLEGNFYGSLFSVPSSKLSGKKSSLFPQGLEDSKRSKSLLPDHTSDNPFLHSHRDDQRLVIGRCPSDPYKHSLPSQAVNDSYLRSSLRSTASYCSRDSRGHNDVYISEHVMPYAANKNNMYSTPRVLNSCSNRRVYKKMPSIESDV

`CNC(=O)c1c(C)sc2nc(Cc3cc(C#N)ccc3F)cc(=O)n12` [Example 21.50, 7-[(5-cyano-2-fluoro-phenyl)methyl]-N,2-dimethyl-5-oxo-thiazolo[3,2-a]pyrimidine-3-carboxamide]: where the note is “Table 2”, the Max % stood at 76.1%. Turning to `CCN(Cc1cc(=O)n2c(CC(=O)NC)c(C)sc2n1)c1ccc(F)cc1` [compound 25, 2-[7-[(N-ethyl-4-fluoro-anilino)methyl]-2-methyl-5-oxo-thiazolo[3,2-a]pyrimidin-3-yl]-N-methyl-acetamide], the EC50 (Table 3) was determined as 0.292 µM. Take `CNC(=O)c1c(C)sc2nc(Cn3nc(C(F)(F)F)cc3C3CC3)cc(=O)n12` [Example 16.1, 7-((5-cyclopropyl-3-(trifluoromethyl)-1H-pyrazol-1-yl)methyl)-N,2-dimethyl-5-oxo-5H-thiazolo[3,2-a]pyrimidine-3-carboxamide]: for the setting “Table 2”, the EC50 worked out at 2.3 µM and the Max % is 140%. With `CNC(=O)Cc1c(C)sc2nc(Cc3cccc(Cl)c3F)cc(=O)n12` [compound 7, 2-[7-[(3-chloro-2-fluoro-phenyl)methyl]-2-methyl-5-oxo-thiazolo[3,2-a]pyrimidin-3-yl]-N-methyl-acetamide], the EC50 (Table 3) is 9.73 µM. Consider `Cc1sc2nc(Cn3nc(C(F)(F)F)cc3C3CC3)cc(=O)n2c1-c1cncnc1` [Example 15.29, 7-((5-cyclopropyl-3-(trifluoromethyl)-1H-pyrazol-1-yl)methyl)-2-methyl-3-(pyrimidin-5-yl)-5H-thiazolo[3,2-a]pyrimidin-5-one], for which, under “Table 2”, the EC50 worked out at 7 µM and the Max % stood at 135%. For the molecule `Cc1sc2nc(Cn3nc(C(F)(F)F)cc3Cl)cc(=O)n2c1C(C)O` (stereo not shown) [compound 110, 7-[[5-chloro-3-(trifluoromethyl)pyrazol-1-yl]methyl]-3-(1-hydroxyethyl)-2-methyl-thiazolo[3,2-a]pyrimidin-5-one], the EC50 (Table 3) amounted to 1.88 µM. `CCN(Cc1cc(=O)n2c(Br)c(C3CC3)sc2n1)c1ccc(F)cc1` [Example 5.54, 3-bromo-2-cyclopropyl-7-[(N-ethyl-4-fluoro-anilino)methyl]thiazolo[3,2-a]pyrimidin-5-one]: for the setting “Table 2”, the EC50 came to 51.5 µM and the Max % amounted to 129%.

As to `CCNC(=O)c1c(C)sc2nc(Cn3nc(C4CC4)cc3Cl)cc(=O)n12` [compound 23, 7-[(5-chloro-3-cyclopropyl-pyrazol-1-yl)methyl]-N-ethyl-2-methyl-5-oxo-thiazolo[3,2-a]pyrimidine-3-carboxamide], for the setting “Table 3”, the EC50 was found to be 3.48 µM. With `CCN(Cc1cc(=O)n2c(I)c(C)sc2n1)c1ccc(F)cc1` [Example 11.4, 7-[(N-ethyl-4-fluoro-anilino)methyl]-3-iodo-2-methyl-thiazolo[3,2-a]pyrimidin-5-one], the Max % (Table 2) amounted to 103%. On the same count and under the same terms, to `CCNC(=O)c1c(C)sc2nc(Cc3cccc(C#N)c3Cl)cc(=O)n12` [Example 21.62, 7-(2-chloro-3-cyanobenzyl)-N-ethyl-2-methyl-5-oxo-5H-thiazolo[3,2-a]pyrimidine-3-carboxamide] belongs 45.6%. With `Cc1sc2nc(COc3ccc(F)cc3F)cc(=O)n2c1[C@@H]1C[C@H]1CO` (relative stereo) [Example 4.6, 7-(2,4-Difluorophenoxymethyl)-3-[trans-2-(hydroxymethyl)cyclopropyl]-2-methyl-5H-[1,3]thiazolo[3,2-a]pyrimidin-5-one], where the note is “Table 2”, the EC50 stood at 7.7 µM and the Max % was 128%. In the case of `CCN(Cc1cc(=O)n2c([C@@H]3C[C@H]3CO)c(C)sc2n1)c1ccc(F)cc1` (relative stereo) [Example 5.17, 7-((ethyl(4-fluorophenyl)amino)methyl)-3-(trans-2-(hydroxymethyl)cyclopropyl)-2-methyl-5H-thiazolo[3,2-a] pyrimidin-5-one], under “Table 2”, the EC50 stood at 0.108 µM and the Max % was found to be 176%. For `CCN(Cc1cc(=O)n2c(-c3cccnc3N)c(C)sc2n1)c1ccc(F)cc1` [Example 5.11, 3-(2-aminopyridin-3-yl)-7-((ethyl(4-fluorophenyl)amino)methyl)-2-methyl-5H-thiazolo[3,2-a]pyrimidin-5-one], where the note is “Table 2”, the EC50 came out at 2.9 µM and the Max % stood at 118%.
